Experiment in all cases: kinome screen (33PanQinase)
Common to all, as to assay type: biochemical

Assay [1] concerns the target T1, ABL2 (Homo sapiens, UniProt P42684).
T1 construct: purchased Reaction Biology Europe GmbH (formerly ProQinase)
How it is done:
(§1) The Kinome Screening was performed by Reaction Biology Europe GmbH (http://reactionbiology.com; Freiburg i. Br., Germany).

Assay [2] concerns the target T2, ACK1 (Homo sapiens, UniProt Q07912).
T2 construct: purchased Reaction Biology Europe GmbH (formerly ProQinase)
The protocol: as §1

In assay [3] the target is T3, DCAMKL2 (Homo sapiens, UniProt Q8N568).
T3 construct: purchased Reaction Biology Europe GmbH (formerly ProQinase)
T3 sequence (Q8N568 1-766): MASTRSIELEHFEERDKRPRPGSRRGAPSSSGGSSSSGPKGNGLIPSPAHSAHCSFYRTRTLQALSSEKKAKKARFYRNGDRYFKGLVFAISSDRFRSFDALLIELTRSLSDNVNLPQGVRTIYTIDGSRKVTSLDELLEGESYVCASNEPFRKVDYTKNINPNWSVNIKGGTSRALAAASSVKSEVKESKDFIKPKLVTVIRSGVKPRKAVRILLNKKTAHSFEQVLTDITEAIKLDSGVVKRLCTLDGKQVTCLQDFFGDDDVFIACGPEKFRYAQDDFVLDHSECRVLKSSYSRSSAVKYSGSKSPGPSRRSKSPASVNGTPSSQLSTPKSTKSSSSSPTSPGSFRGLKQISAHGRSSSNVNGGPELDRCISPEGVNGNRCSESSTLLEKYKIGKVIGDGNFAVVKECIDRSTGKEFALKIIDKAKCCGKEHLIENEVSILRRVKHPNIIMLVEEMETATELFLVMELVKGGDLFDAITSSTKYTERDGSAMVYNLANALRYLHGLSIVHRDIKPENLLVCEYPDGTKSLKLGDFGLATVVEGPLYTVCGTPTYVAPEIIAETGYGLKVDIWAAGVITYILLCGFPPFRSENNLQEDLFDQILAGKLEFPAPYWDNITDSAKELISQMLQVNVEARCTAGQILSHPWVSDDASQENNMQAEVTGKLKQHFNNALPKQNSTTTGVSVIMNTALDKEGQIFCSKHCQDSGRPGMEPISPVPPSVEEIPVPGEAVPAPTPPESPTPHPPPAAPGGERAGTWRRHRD
The protocol:
as §1

Assay [4] concerns the target T4, HIPK4 (Homo sapiens, UniProt Q8NE63).
T4 construct: purchased Reaction Biology Europe GmbH (formerly ProQinase)
T4 sequence (Q8NE63 1-616): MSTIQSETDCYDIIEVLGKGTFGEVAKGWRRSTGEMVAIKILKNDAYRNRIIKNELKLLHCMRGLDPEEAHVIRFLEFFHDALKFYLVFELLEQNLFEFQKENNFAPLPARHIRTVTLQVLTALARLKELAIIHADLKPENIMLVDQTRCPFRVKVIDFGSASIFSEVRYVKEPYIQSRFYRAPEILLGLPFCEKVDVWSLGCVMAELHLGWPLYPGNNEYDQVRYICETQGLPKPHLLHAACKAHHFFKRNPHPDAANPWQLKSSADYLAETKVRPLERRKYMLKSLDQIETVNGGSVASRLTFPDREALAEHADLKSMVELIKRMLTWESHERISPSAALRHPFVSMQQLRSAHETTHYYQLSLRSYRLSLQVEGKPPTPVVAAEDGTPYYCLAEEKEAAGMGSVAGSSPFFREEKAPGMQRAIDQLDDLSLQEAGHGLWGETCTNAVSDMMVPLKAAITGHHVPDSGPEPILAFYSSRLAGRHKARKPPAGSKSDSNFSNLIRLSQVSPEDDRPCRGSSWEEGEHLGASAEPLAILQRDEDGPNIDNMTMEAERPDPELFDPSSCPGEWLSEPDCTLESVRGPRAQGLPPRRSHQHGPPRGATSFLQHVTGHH
The protocol: as §1

Assay [5] has as its target T5, MKNK1 (Homo sapiens, UniProt Q9BUB5).
T5 construct: purchased Reaction Biology Europe GmbH (formerly ProQinase)
How it is done:
as §1

Assay [6] concerns the target T6, PIM2 (Homo sapiens, UniProt Q9P1W9).
T6 construct: purchased Reaction Biology Europe GmbH (formerly ProQinase)
The protocol: as §1

Assay [7] concerns the target T7, SAK (Homo sapiens, UniProt O00444).
T7 construct: purchased Reaction Biology Europe GmbH (formerly ProQinase)
T7 sequence (O00444 1-970): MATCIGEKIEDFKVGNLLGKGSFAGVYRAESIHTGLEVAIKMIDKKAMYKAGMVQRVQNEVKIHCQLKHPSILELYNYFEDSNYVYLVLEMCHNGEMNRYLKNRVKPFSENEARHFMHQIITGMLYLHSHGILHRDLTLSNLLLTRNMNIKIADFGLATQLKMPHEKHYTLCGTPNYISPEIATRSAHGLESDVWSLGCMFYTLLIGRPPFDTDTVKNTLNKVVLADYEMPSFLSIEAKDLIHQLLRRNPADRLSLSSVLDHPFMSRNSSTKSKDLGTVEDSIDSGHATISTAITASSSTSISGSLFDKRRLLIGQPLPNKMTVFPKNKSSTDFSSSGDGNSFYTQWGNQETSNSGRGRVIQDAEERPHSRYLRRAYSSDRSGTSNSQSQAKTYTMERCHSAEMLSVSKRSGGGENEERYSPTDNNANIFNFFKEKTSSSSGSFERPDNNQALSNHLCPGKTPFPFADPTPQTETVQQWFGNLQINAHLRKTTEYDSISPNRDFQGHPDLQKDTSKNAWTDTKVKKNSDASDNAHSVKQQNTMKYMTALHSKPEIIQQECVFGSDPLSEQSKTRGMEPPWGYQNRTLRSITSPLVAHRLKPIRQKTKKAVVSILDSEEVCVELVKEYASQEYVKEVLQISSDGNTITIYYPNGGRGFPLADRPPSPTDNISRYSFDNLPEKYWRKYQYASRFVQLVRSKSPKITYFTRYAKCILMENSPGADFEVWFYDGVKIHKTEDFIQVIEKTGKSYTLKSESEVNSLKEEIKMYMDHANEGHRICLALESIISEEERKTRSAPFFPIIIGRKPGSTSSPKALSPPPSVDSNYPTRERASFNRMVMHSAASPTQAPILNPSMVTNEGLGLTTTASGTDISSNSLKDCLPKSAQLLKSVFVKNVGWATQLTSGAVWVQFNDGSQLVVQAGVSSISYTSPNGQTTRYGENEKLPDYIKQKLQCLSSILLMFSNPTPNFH
How it is done:
as §1

T2 sequence (Q07912 whole entry): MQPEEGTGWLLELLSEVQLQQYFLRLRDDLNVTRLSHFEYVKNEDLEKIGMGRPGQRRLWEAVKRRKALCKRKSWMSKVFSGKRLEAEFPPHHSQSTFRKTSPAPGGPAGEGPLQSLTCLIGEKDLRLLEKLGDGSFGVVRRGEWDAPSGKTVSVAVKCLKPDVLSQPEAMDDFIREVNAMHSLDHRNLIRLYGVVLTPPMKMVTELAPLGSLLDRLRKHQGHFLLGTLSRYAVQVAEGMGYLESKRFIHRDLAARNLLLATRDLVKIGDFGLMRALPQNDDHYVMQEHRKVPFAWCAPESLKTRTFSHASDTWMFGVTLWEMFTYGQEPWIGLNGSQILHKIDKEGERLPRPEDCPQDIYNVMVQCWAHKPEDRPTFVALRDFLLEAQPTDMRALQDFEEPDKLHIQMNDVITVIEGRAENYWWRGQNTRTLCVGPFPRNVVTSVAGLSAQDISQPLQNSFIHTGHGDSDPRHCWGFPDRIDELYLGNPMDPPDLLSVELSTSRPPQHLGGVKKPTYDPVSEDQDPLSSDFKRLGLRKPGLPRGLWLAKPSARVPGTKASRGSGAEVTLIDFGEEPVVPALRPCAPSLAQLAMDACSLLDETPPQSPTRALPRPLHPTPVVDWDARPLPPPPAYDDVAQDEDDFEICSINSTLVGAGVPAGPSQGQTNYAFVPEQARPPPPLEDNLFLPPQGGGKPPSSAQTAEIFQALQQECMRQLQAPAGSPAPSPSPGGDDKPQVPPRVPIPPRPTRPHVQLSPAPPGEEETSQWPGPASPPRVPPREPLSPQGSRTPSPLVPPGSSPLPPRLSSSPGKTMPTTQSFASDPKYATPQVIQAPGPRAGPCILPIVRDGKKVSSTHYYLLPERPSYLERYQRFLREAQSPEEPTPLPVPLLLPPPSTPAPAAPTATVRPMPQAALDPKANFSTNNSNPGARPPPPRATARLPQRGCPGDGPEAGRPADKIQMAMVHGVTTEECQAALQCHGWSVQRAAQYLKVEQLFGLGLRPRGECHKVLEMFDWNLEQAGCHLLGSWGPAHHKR
T5 sequence (Q9BUB5 whole entry): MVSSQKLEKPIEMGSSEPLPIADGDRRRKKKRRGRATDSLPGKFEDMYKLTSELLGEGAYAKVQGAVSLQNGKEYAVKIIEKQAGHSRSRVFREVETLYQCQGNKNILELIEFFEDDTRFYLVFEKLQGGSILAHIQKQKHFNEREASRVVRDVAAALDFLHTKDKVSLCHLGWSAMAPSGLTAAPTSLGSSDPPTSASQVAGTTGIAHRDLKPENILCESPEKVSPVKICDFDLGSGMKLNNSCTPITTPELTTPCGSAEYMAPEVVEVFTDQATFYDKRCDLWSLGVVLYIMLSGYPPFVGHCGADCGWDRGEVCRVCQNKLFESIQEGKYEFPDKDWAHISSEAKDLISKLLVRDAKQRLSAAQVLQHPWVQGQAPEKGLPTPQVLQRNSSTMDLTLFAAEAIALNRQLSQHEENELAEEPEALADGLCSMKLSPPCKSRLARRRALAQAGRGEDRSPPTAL
T1 sequence (P42684 whole entry): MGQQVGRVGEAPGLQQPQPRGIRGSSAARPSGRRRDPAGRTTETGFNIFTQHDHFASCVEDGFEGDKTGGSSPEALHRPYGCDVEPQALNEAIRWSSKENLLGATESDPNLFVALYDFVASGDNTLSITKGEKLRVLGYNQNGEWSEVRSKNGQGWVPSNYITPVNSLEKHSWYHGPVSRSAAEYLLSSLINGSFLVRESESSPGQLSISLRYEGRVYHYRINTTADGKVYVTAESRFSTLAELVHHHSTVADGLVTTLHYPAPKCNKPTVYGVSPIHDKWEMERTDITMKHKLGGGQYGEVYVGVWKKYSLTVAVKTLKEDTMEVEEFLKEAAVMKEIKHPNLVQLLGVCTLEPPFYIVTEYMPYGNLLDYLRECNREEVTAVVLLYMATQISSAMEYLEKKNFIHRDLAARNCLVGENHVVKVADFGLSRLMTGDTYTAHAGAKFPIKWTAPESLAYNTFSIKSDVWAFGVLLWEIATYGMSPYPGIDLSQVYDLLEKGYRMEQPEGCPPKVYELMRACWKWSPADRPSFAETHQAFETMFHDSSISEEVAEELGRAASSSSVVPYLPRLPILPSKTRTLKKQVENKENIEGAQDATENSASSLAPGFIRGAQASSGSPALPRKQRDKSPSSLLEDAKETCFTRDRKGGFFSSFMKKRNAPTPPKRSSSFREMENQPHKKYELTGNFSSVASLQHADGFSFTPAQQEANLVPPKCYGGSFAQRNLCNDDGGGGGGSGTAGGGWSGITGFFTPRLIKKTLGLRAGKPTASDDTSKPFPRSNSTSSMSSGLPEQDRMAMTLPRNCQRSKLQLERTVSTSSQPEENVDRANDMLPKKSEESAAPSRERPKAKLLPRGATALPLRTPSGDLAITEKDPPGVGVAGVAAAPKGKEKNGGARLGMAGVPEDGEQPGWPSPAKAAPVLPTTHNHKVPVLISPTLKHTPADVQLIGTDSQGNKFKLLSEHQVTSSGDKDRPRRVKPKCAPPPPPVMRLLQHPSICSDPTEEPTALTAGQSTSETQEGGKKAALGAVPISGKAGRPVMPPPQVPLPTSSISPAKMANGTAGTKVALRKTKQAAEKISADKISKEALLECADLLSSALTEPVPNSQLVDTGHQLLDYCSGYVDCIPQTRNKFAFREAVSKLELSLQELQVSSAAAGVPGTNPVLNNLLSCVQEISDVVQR
T6 sequence (Q9P1W9 whole entry): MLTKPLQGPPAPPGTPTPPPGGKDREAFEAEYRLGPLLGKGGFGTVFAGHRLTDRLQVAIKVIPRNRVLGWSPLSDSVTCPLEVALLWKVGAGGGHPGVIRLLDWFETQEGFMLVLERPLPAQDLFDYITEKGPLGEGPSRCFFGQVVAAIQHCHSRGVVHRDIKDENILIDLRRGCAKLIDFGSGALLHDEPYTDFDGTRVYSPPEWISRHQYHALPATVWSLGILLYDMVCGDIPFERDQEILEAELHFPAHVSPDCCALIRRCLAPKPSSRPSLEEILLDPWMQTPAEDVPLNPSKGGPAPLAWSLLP

Consider `COc1ccnc2[nH]cc(-c3cc(N)nc(N)c3)c12` [meriolin 16], for which the residual kinase activity in assay [1] (0.03 µM) is 95 % of control; in assay [1] (0.3 µM) it was 91 % of control; in assay [2] (0.03 µM) it was 83 % of control; in assay [2] (0.3 µM), 72 % of control; in assay [3] (0.03 µM), 92 % of control; in assay [3] (0.3 µM) it was 85 % of control. The residual kinase activity in assay [4] (0.03 µM) is listed as 74 % of control; in assay [4] (0.3 µM), 24 % of control; in assay [5] (0.03 µM) it was 97 % of control; in assay [5] (0.3 µM), 70 % of control; in assay [6] (0.03 µM) it was 115 % of control; in assay [6] (0.3 µM), 83 % of control. For the same compound, the residual kinase activity in assay [7] (0.03 µM) is recorded as 97 % of control; in assay [7] (0.3 µM) it was 84 % of control.
As for `c1ccc(CNc2cc(-c3c[nH]c4ncccc34)ccn2)cc1` [meriolin 36], the residual kinase activity in assay [1] (0.3 µM) is listed as 56 % of control; in assay [1] (3 µM), 18 % of control; in assay [2] (0.3 µM), 59 % of control; in assay [2] (3 µM), 15 % of control; in assay [3] (0.3 µM), 91 % of control; in assay [3] (3 µM), 81 % of control. The residual kinase activity is given as 27 % of control in assay [4] (0.3 µM); 2 % of control in assay [4] (3 µM); 48 % of control in assay [5] (0.3 µM); 16 % of control in assay [5] (3 µM); 119 % of control in assay [6] (0.3 µM); 90 % of control in assay [6] (3 µM). Also, the residual kinase activity in assay [7] (0.3 µM) is given as 53 % of control; in assay [7] (3 µM), 24 % of control.

The values above are taken from article PMC11167047 (Cell Death Discovery, 2024).
